Data published in patent publication US20110245242A1, “Heterocyclically Substituted Anilinopyrimides” (Bayer CropScience AG, priority 2008, published 2011).

Experiment: log P by LC-MS, method [b], acid range pH 2.7
Assay type: physicochemical
Conditions: pH 2.7
Experimental: The log P values were measured in accordance with EEC Directive 79/831 Annex V.A8 by HPLC (High Performance Liquid Chromatography) on reversed-phase columns (C 18) using the methods below:
[b] The LC-MS determination in the acid range was carried out at pH 2.7 using the mobile phases 0.1% aqueous formic acid and acetonitrile (contains 0.1% formic acid)
linear gradient from 10% acetonitrile to 95% acetonitrile.

Structure (SMILES) | log p
CC(C)Nc1nc(Nc2cccc(N3CCCCC3=O)c2)ncc1Br [Example 134] | 1.57[b]
CC(C)[C@H]1COC(=O)N1c1cccc(Nc2ncc(Cl)c(NCC(F)F)n2)c1 [Example 112] | 2.39[b]
CC1COC(=O)N1c1ccc(Nc2ncc(Cl)c(NCC(F)F)n2)cc1 (centres unmarked) [Example 158] | 1.68[b]
CC(C)Nc1nc(Nc2cccc(N3C(=O)OCC3C(C)C)c2)ncc1Br (centres unmarked) [Example 129] | 2.24[b]
CC1(C)CN(c2cccc(Nc3ncc(Br)c(NC4CC4)n3)c2)C1=O [Example 52] | 2.18[b]
COCC(C)Nc1nc(Nc2cccc(N3CCOC3=O)c2)ncc1Br (centres unmarked) [Example 69] | 1.61[b]
CC1CCC(=O)N1c1cccc(Nc2ncc(Cl)c(N(C)C3CC3)n2)c1 (centres unmarked) [Example 180] | 2.26[b]
CC1COC(=O)N1c1cccc(Nc2ncc(Cl)c(NCC3CC3)n2)c1 (centres unmarked) [Example 116] | 1.64[b]
O=C1OCC(c2ccccc2)N1c1cccc(Nc2ncc(Br)c(NC3CC3)n2)c1 (centres unmarked) [Example 91] | 2.3[b]
CC(C)[C@H]1COC(=O)N1c1cccc(Nc2ncc(Cl)c(NCC(F)(F)F)n2)c1 [Example 111] | 2.81[b]
CC1CCC(=O)N1c1cccc(Nc2ncc(Br)c(NCC3CC3)n2)c1 (centres unmarked) [Example 133] | 1.77[b]
Cc1ccc(Nc2ncc(Cl)c(NC3CCC3)n2)cc1N1CCOC1=O [Example 105] | 1.6[b]
COCC(C)Nc1nc(Nc2ccc(N3C(=O)OCC3C)cc2)ncc1Br (centres unmarked) [Example 4] | 1.61[b]
CC1CC(=O)N(c2cccc(Nc3ncc(Br)c(NC4CCC4)n3)c2)C1 (centres unmarked) [Example 98] | 2.16[b]
COCC(C)Nc1nc(Nc2cccc(N3CCCC3=O)c2)ncc1Br (centres unmarked) [Example 5] | 1.6[b]
CC1(C)CC(=O)N(c2cccc(Nc3ncc(Cl)c(NC4CCC4)n3)c2)C1=O [Example 29] | 2.07[b]
CC1COC(=O)N1c1ccc(Nc2ncc(Cl)c(N(C)C3CC3)n2)cc1 (centres unmarked) [Example 179] | 2.16[b]
CC(C)[C@H]1COC(=O)N1c1cccc(Nc2ncc(Cl)c(NCC3CC3)n2)c1 [Example 109] | 2.17[b]
CC1(C)CN(c2cccc(Nc3ncc(Cl)c(NC4CC4)n3)c2)C1=O [Example 53] | 2.07[b]

Structure (SMILES) | log p
CC1CCN(c2cccc(Nc3ncc(Cl)c(NC4CCC4)n3)c2)C1=O (centres unmarked) [Example 113] | 2.01[b]
CC1CC(C)N(c2cccc(Nc3ncc(Cl)c(NC4CCC4)n3)c2)C1=O (centres unmarked) [Example 80] | 2.2[b]
COCC(C)Nc1nc(Nc2cccc(N3C(=O)OC[C@@H]3C(C)C)c2)ncc1Cl (some centres unmarked) [Example 117] | 2.1[b]
CC(C)Nc1nc(Nc2cccc(N3C(=O)CC(C)(C)C3=O)c2)ncc1Br [Example 148] | 1.93[b]
O=C1OCC(c2ccccc2)N1c1cccc(Nc2ncc(Cl)c(NC3CCC3)n2)c1 (centres unmarked) [Example 89] | 2.65[b]
CN1CCN(c2cccc(Nc3ncc(C(F)(F)F)c(NC4CC4)n3)c2)C1=O [Example 293] | 2.22[b]
CC(C)Nc1nc(Nc2cccc(N3C(=O)CCC3C)c2)ncc1Br (centres unmarked) [Example 152] | 1.73[b]
CC1CC(=O)N(c2cccc(Nc3ncc(Cl)c(NCC4CC4)n3)c2)C1=O (centres unmarked) [Example 71] | 1.68[b]
CC(C)[C@@H]1COC(=O)N1c1cccc(Nc2ncc(Cl)c(NC3CCC3)n2)c1 [Example 101] | 2.38[b]
CC(C)Nc1nc(Nc2ccc(N3C(=O)OCC3C)cc2)ncc1Br (centres unmarked) [Example 150] | 1.68[b]
COCC(C)Nc1nc(Nc2cccc(N3CCCC3=O)c2)ncc1C#N (centres unmarked) [Example 24] | 1.99[b]
O=C1OCCN1c1cccc(Nc2ncc(Cl)c(NCC(F)F)n2)c1 [Example 154] | 1.63[b]
CCC1COC(=O)N1c1cccc(Nc2ncc(Br)c(NC3CCC3)n2)c1 (centres unmarked) [Example 34] | 2.24[b]
CC1CC(=O)N(c2cccc(Nc3ncc(Br)c(NC4CC4)n3)c2)C1=O (centres unmarked) [Example 66] | 1.78[b]
O=C1CCCCN1c1cccc(Nc2ncc(Br)c(NCC(F)F)n2)c1 [Example 135] | 1.75[b]
C[C@@H]1COC(=O)N1c1cccc(Nc2ncc(Br)c(NC3CC3)n2)c1 [Example 104] | 2.03[b]
CC(C)Nc1nc(Nc2cccc(N3C(=O)OCC3C)c2)ncc1Br (centres unmarked) [Example 147] | 1.73[b]
O=C1CCCN1c1cccc(Nc2ncc(Cl)c(NC3CCCC3)n2)c1 [Example 42] | 1.92[b]
O=c1ccccn1-c1cccc(Nc2ncc(Cl)c(NC3CCC3)n2)c1 [Example 16] | 2.17[b]

Structure (SMILES) | log p
CC1COC(=O)N1c1cccc(Nc2ncc(Cl)c(N(C)C3CC3)n2)c1 (centres unmarked) [Example 176] | 2.29[b]
CC1CC(=O)N(c2cccc(Nc3ncc(Cl)c(NC4CCC4)n3)c2)C1 (centres unmarked) [Example 97] | 2.02[b]
CC(C)Nc1nc(Nc2cccc(N3C(=O)C(C)CC3C)c2)ncc1Br (centres unmarked) [Example 149] | 1.98[b]
CN1CCN(c2cccc(Nc3ncc(I)c(NC4CC4)n3)c2)C1=O [Example 296] | 1.57[b]
COCC(C)Nc1nc(Nc2cccc(N3C(=O)CC(C)C3=O)c2)ncc1Cl (centres unmarked) [Example 68] | 1.59[b]
CC(C)Nc1nc(Nc2cccc(N3CCOCC3=O)c2)ncc1Br [Example 151] | 1.47[b]
CC(C)[C@@H]1COC(=O)N1c1cccc(Nc2ncc(Cl)c(NC3CC3)n2)c1 [Example 75] | 2.39[b]
CC1CC(=O)N(c2cccc(Nc3ncc(Cl)c(N(C)C4CC4)n3)c2)C1=O (centres unmarked) [Example 182] | 2.21[b]
CC1(C)CC(=O)N(c2cccc(Nc3ncc(Cl)c(NCC(F)F)n3)c2)C1=O [Example 156] | 2.01[b]
CC(C)Nc1nc(Nc2ccc(N3CCOC3=O)cc2)ncc1Cl [Example 64] | 1.49[b]
CC(C)Nc1nc(Nc2cccc(N3CCCCC3=O)c2)ncc1Cl [Example 114] | 1.46[b]
COCC(C)Nc1nc(Nc2ccc(N3C(=O)OCC3C)cc2)ncc1Cl (centres unmarked) [Example 3] | 1.54[b]
CC(C)C1COC(=O)N1c1cccc(Nc2ncc(Br)c(NCC3CC3)n2)c1 (centres unmarked) [Example 128] | 2.28[b]
CC1(C)CC(=O)N(c2cccc(Nc3ncc(Br)c(NCC4CC4)n3)c2)C1=O [Example 132] | 2.02[b]
C[C@H]1COC(=O)N1c1cccc(Nc2ncc(Cl)c(NC3CCC3)n2)c1 [Example 93] | 1.82[b]
CC(C)Nc1nc(Nc2cccc(N3C(=O)CC(C)C3=O)c2)ncc1Br (centres unmarked) [Example 153] | 1.68[b]
O=C1OCC(c2ccccc2)N1c1cccc(Nc2ncc(Br)c(NC3CCC3)n2)c1 (centres unmarked) [Example 90] | 2.8[b]
O=C1OCC(c2ccccc2)N1c1cccc(Nc2ncc(Cl)c(NC3CC3)n2)c1 (centres unmarked) [Example 88] | 2.27[b]
C[C@H]1COC(=O)N1c1cccc(Nc2ncc(Br)c(NC3CC3)n2)c1 [Example 95] | 1.65[b]

Now from value to compound:

log p | Structure (SMILES)
2[b] | CC1CC(Nc2nc(Nc3cccc(N4CCN(C)C4=O)c3)ncc2Br)C1 (centres unmarked) [Example 290]
1.92[b] | O=C1N(CCCl)CCN1c1cccc(Nc2ncc(Br)c(NC3CC3)n2)c1 [Example 285]
1.68[b] | CC1CC(=O)N(c2cccc(Nc3ncc(Cl)c(NCC(F)F)n3)c2)C1=O (centres unmarked) [Example 161]
1.88[b] | CC1COC(=O)N1c1cccc(Nc2ncc(Br)c(NCC(F)F)n2)c1 (centres unmarked) [Example 163]
1.71[b] | O=C1OCCN1c1cccc(Nc2ncc(Br)c(NCC(F)F)n2)c1 [Example 162]
2.36[b] | CC1(C)CC(=O)N(c2cccc(Nc3ncc(Cl)c(NCC(F)(F)F)n3)c2)C1=O [Example 170]
1.81[b] | CC1CCC(=O)N1c1cccc(Nc2ncc(Cl)c(NCC(F)F)n2)c1 (centres unmarked) [Example 160]
2.66[b] | CC1CC(Nc2nc(Nc3cccc(N4C(=O)C(C)CC4C)c3)ncc2Br)C1 (centres unmarked) [Example 291]
2.06[b] | CC1COC(=O)N1c1ccc(Nc2ncc(Cl)c(NCC(F)(F)F)n2)cc1 (centres unmarked) [Example 172]
1.67[b] | O=C1CCCN1c1cccc(Nc2ncc(Cl)c(N3CCCC3)n2)c1 [Example 222]
1.78[b] | CC1CC(=O)N(c2cccc(Nc3ncc(Br)c(NCC(F)F)n3)c2)C1=O (centres unmarked) [Example 168]
2.17[b] | CC1CC(Nc2nc(Nc3cccc(N4C(=O)CCC4C)c3)ncc2Br)C1 (centres unmarked) [Example 317]
2.01[b] | O=C1OCCN1c1cccc(Nc2ncc(Cl)c(NCC(F)(F)F)n2)c1 [Example 175]
3.56[b] | CN(c1nc(Nc2cccc(N3CCCC3=O)c2)ncc1C(F)(F)F)C1CCCC1 [Example 319]
1.63[b] | CNc1nc(Nc2cccc(N3CCCC3=O)c2)ncc1C(F)(F)F [Example 323]
3.04[b] | CC1(C)CC1Nc1nc(Nc2cccc(N3CCCC3=O)c2)ncc1C(F)(F)F (centres unmarked) [Example 321]
1.84[b] | O=C1CCCN1c1cccc(Nc2ncc(C(F)(F)F)c(NC3COC3)n2)c1 [Example 322]
2.51[b] | CC1CC(C)N(c2cccc(Nc3ncc(Cl)c(NCC(F)(F)F)n3)c2)C1=O (centres unmarked) [Example 171]
1.86[b] | CC1CC(Nc2nc(Nc3cccc(N4C(=O)CCC4=O)c3)ncc2Br)C1 (centres unmarked) [Example 288]
1.67[b] | CC1CC1Nc1nc(Nc2cccc(N3CCOC3=O)c2)ncc1Cl (centres unmarked) [Example 205]
2.16[b] | CC1CCC(=O)N1c1cccc(Nc2ncc(Cl)c(NCC(F)(F)F)n2)c1 (centres unmarked) [Example 174]
1.99[b] | CCC1CC1Nc1nc(Nc2cccc(N3CCCC3=O)c2)ncc1Cl (centres unmarked) [Example 242]
3.24[b] | C[C@@H]1C[C@H](C)N(c2cccc(Nc3ncc(Br)c(NCC(F)F)n3)c2)C1=O [Example 189]
1.46[b] | O=C1COCCN1c1cccc(Nc2ncc(Cl)c(NCC(F)F)n2)c1 [Example 159]
2.41[b] | O=C1CCCN1c1cc(Nc2ncc(C(F)(F)F)c(NCC3CC3)n2)ccc1F [Example 201]
1.71[b] | COCC(C)Nc1nc(Nc2cccc(N3C(=O)OC[C@H]3C)c2)ncc1Br (some centres unmarked) [Example 183]
